Data as given in patent publication US6737383B1, “Herbicidal oxadiazolidines” (priority 1999, dated 2004).

Legend:
bedstraw = assay: Test B pre/postemergence bedstraw; type: in vivo, Galium aparine; settings: Preemergence
Summary of the method: (§1)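 Test chemicals in a non-phytotoxic solvent mixture with surfactant were sprayed preemergence onto planted seeds and postemergence onto plants 2 to 18 cm tall (1- to 4-leaf stage). After twelve to sixteen days in a greenhouse, injury was visually rated against untreated controls from 0 (no effect) to 10 (complete control).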

blackgrass = assay: Test B pre/postemergence blackgrass; type: in vivo, Alopecurus myosuroides
Summary of the method: as §1

surinam grass = assay: Test B pre/postemergence surinam grass; type: in vivo, Brachiaria decumbens
Summary of the method: as §1

cocklebur = assay: Test B pre/postemergence cocklebur; type: in vivo, Xanthium strumarium
Summary of the method: as §1

corn = assay: Test B pre/postemergence corn; type: in vivo, Zea mays
Summary of the method: as §1

crabgrass = assay: Test B pre/postemergence crabgrass; type: in vivo, Digitaria sanguinalis
Summary of the method: as §1

giant foxtail = assay: Test B pre/postemergence giant foxtail; type: in vivo, Setaria faberii
Summary of the method: as §1

morningglory = assay: Test B pre/postemergence morningglory; type: in vivo, Ipomoea hederacea
Summary of the method: as §1

pigweed = assay: Test B pre/postemergence pigweed; type: in vivo, Amaranthus retroflexus; settings: for Plant response rating, Redroot pigweed: Postemergence; for Redroot pigweed plant response rating: Preemergence
Summary of the method: as §1

rape = assay: Test B pre/postemergence rape; type: in vivo, Brassica napus
Summary of the method: as §1

soybean = assay: Test B pre/postemergence soybean; type: in vivo, Glycine max; settings: for Plant response rating, Soybean: Postemergence
Summary of the method: as §1

sugar beet = assay: Test B pre/postemergence sugar beet; type: in vivo, Beta vulgaris; settings: for Plant response rating, Sugarbeets: Postemergence
Summary of the method: as §1

velvetleaf = assay: Test B pre/postemergence velvetleaf; type: in vivo, Abutilon theophrasti; settings: for Plant response rating, Velvetleaf: Postemergence
Summary of the method: as §1

wheat = assay: Test B pre/postemergence wheat; type: in vivo, Triticum aestivum; settings: for Plant response rating, Wheat: Postemergence
Summary of the method: as §1

wild oat = assay: Test B pre/postemergence wild oat; type: in vivo, Avena fatua; settings: for Plant response rating, Wild oats: Postemergence
Summary of the method: as §1

purple nutsedge = assay: Test B pre/postemergence purple nutsedge; type: in vivo, Cyperus rotundus
Summary of the method: as §1

[1] = Rate 62 g/ha, scale 0 to 10 (0 no effect, 10 complete control)
[2] = Rate 125 g/ha, scale 0 to 10, 0 is no effect, 10 is complete control
[3] = Rate 500 g/ha, scale of 0 to 10 where 0 is no effect and 10 is complete control
[4] = Postemergence, Rate 62 g/ha, scale of 0 to 10, 0 is no effect, 10 is complete control
[5] = Postemergence, Rate 125 g/ha, scale 0 to 10, 0 is no effect, 10 is complete control
[6] = Preemergence, Rate 62 g/ha, scale 0 to 10 (0 no effect, 10 complete control)
[7] = Preemergence, Rate 125 g/ha, scale 0 to 10, 0 is no effect, 10 is complete control
[8] = Preemergence, Rate 500 g/ha, scale of 0 to 10 where 0 is no effect and 10 is complete control
[9] = Rate 250 g/ha, Postemergence, scale of 0 to 10 where 0 is no effect and 10 is complete control
[10] = Postemergence, Rate 500 g/ha, scale of 0 to 10 where 0 is no effect and 10 is complete control
[11] = Rate 250 g/ha, scale of 0 to 10 where 0 is no effect and 10 is complete control

SMILES: CC(C)=CCn1c(=O)on(C(=O)N(c2ccccc2)C(C)C)c1=O [Compound 574]
- Bedstraw plant response rating (bedstraw; [1]): 0
- Bedstraw plant response rating (bedstraw; [2]): 0
- Bedstraw plant response rating (0 to 10 scale) (bedstraw; Rate 250 g/ha): 0
- Bedstraw plant response rating (bedstraw; [3]): 0
- Blackgrass plant response rating (blackgrass; [4]): 2
- Blackgrass plant response rating (blackgrass; [5]): 6
- Blackgrass plant response rating (blackgrass; [6]): 0
- Blackgrass plant response rating (blackgrass; [7]): 0
- Blackgrass plant response rating (0 to 10 scale) (blackgrass; Preemergence, Rate 250 g/ha): 2
- Blackgrass plant response rating (blackgrass; [8]): 2
- Plant response rating, Blackgrass (blackgrass; [9]): 6
- B. signalgrass plant response rating (surinam grass; [4]): 0
- B. signalgrass plant response rating (surinam grass; [5]): 0
- Plant response rating, B. signalgrass (surinam grass; [10]): 0
- B. signalgrass plant response rating (surinam grass; [6]): 4
- B. signalgrass plant response rating (surinam grass; [7]): 7
- B. signalgrass plant response rating (0 to 10 scale, 0 is no effect, 10 is complete control) (surinam grass; Preemergence, Rate 250 g/ha): 10
- B. signalgrass plant response rating (surinam grass; [8]): 9
- Plant response rating, B. signalgrass (surinam grass; [9]): 0
- Cocklebur plant response rating (cocklebur; [4]): 0
- Cocklebur plant response rating (cocklebur; [5]): 2
- Plant response rating, Cocklebur (cocklebur; [10]): 2
- Cocklebur plant response rating (cocklebur; [6]): 0
- Cocklebur plant response rating (cocklebur; [7]): 0
- Cocklebur plant response rating (0 to 10 scale) (cocklebur; Preemergence, Rate 250 g/ha): 0
- Cocklebur plant response rating (cocklebur; [8]): 0
- Plant response rating, Cocklebur (cocklebur; [9]): 2
- Corn plant response rating (corn; [4]): 0
- Corn plant response rating (corn; [5]): 0
- Plant response rating, Corn (corn; [10]): 0
- Corn plant response rating (corn; [6]): 0
- Corn plant response rating (corn; [7]): 0
- Corn plant response rating (0 to 10 scale) (corn; Preemergence, Rate 250 g/ha): 0
- Corn plant response rating (corn; [8]): 0
- Plant response rating, Corn (corn; [9]): 0
- Crabgrass plant response rating (crabgrass; [4]): 0
- Crabgrass plant response rating (crabgrass; [5]): 2
- Plant response rating, Crabgrass (crabgrass; [10]): 2
- Crabgrass plant response rating (crabgrass; [6]): 2
- Crabgrass plant response rating (crabgrass; [7]): 9
- Crabgrass plant response rating (0 to 10 scale) (crabgrass; Preemergence, Rate 250 g/ha): 9
- Crabgrass plant response rating (crabgrass; [8]): 9
- Giant foxtail plant response rating (giant foxtail; [4]): 2
- Giant foxtail plant response rating (giant foxtail; [5]): 7
- Plant response rating, Giant foxtail (giant foxtail; [10]): 8
- Giant foxtail plant response rating (giant foxtail; [6]): 9
- Giant foxtail plant response rating (giant foxtail; [7]): 10
- Giant foxtail plant response rating (0 to 10 scale) (giant foxtail; Preemergence, Rate 250 g/ha): 10
- Giant foxtail plant response rating (giant foxtail; [8]): 10
- Plant response rating, Giant foxtail (giant foxtail; [9]): 6
- Morningglory plant response rating (morningglory; [4]): 10
- Morningglory plant response rating (morningglory; [5]): 10
- Plant response rating, Morningglory (morningglory; [10]): 10
- Morningglory plant response rating (morningglory; [6]): 0
- Morningglory plant response rating (morningglory; [7]): 0
- Morningglory plant response rating (0 to 10 scale) (morningglory; Preemergence, Rate 250 g/ha): 0
- Morningglory plant response rating (morningglory; [8]): 0
- Plant response rating, Morningglory (morningglory; [9]): 10
- Plant response rating, Redroot pigweed (pigweed; [3]): 5
- Redroot pigweed plant response rating (pigweed; [1]): 0
- Redroot pigweed plant response rating (pigweed; [2]): 0
- Redroot pigweed plant response rating (pigweed; [3]): 9
- Plant response rating, Redroot pigweed (pigweed; [11]): 0
- Rape plant response rating (rape; [4]): 0
- Rape plant response rating (rape; [5]): 0
- Plant response rating, Rape (rape; [10]): 3
- Rape plant response rating (rape; [6]): 0
- Rape plant response rating (rape; [7]): 0
- Rape plant response rating (0 to 10 scale) (rape; Preemergence, Rate 250 g/ha): 0
- Rape plant response rating (rape; [8]): 0
- Plant response rating, Rape (rape; [9]): 0
- Plant response rating, Soybean (soybean; [3]): 7
- Soybean plant response rating (soybean; [6]): 0
- Soybean plant response rating (soybean; [7]): 0
- Soybean plant response rating (0 to 10 scale) (soybean; Preemergence, Rate 250 g/ha): 0
- Soybean plant response rating (soybean; [8]): 0
- Plant response rating, Soybean (soybean; [11]): 6
- Plant response rating, Sugarbeets (sugar beet; [3]): 0
- Sugarbeets plant response rating (sugar beet; [6]): 0
- Sugarbeets plant response rating (sugar beet; [7]): 0
- Sugarbeets plant response rating (0 to 10 scale) (sugar beet; Preemergence, Rate 250 g/ha): 0
- Sugarbeets plant response rating (sugar beet; [8]): 3
- Plant response rating, Sugarbeets (sugar beet; [11]): 0
- Plant response rating, Velvetleaf (velvetleaf; [3]): 2
- Velvetleaf plant response rating (velvetleaf; [6]): 0
- Velvetleaf plant response rating (velvetleaf; [7]): 0
- Velvetleaf plant response rating (0 to 10 scale) (velvetleaf; Preemergence, Rate 250 g/ha): 2
- Velvetleaf plant response rating (velvetleaf; [8]): 2
- Plant response rating, Velvetleaf (velvetleaf; [11]): 2
- Plant response rating, Wheat (wheat; [3]): 2
- Wheat plant response rating (wheat; [6]): 0
- Wheat plant response rating (wheat; [7]): 0
- Wheat plant response rating (0 to 10 scale) (wheat; Preemergence, Rate 250 g/ha): 0
- Wheat plant response rating (wheat; [8]): 0
- Plant response rating, Wheat (wheat; [11]): 0
- Plant response rating, Wild oats (wild oat; [3]): 0
- Wild oats plant response rating (wild oat; [6]): 0
- Wild oats plant response rating (wild oat; [7]): 0
- Wild oats plant response rating (0 to 10 scale) (wild oat; Preemergence, Rate 250 g/ha): 0
- Wild oats plant response rating (wild oat; [8]): 3
- Plant response rating, Wild oats (wild oat; [11]): 0
- Nutsedge plant response rating (purple nutsedge; [4]): 0
- Plant response rating, Nutsedge (purple nutsedge; [10]): 0
- Nutsedge plant response rating (purple nutsedge; [6]): 0
- Nutsedge plant response rating (purple nutsedge; [7]): 0
- Nutsedge plant response rating (0 to 10 scale) (purple nutsedge; Preemergence, Rate 250 g/ha): 0
- Nutsedge plant response rating (purple nutsedge; [8]): 0
- Plant response rating, Nutsedge (purple nutsedge; [9]): 0
